US20230070731A1, “COMPOSITIONS FOR SMALL MOLECULE CONTROL OF PRECISE BASE EDITING OF TARGET NUCLEIC ACIDS AND METHODS OF USE THEREOF” (THE TRUSTEES OF THE UNIVERSITY OF PENNSYLVANIA, priority 2020, published 2023)

Tests used:
BL21(DE3) E. coli = assay: Bacterial DNA deaminase rifampicin mutagenesis assay (acquired rifampin resistance); assay type: cell-based; details: expression in E. coli
Protocol: In initial studies, a foreign protein/domain was inserted into an enhanced hyperactive version of AID described in U.S. patent application Ser. No. 16/025,261 (See for example, SEQ ID NO: 20 of the '261 patent application) which is incorporated herein by reference as though set forth in full. This mutant version of the human DNA deaminase AID, involved in antibody maturation was assessed and the loop regions which appeared to be tolerant to insertion of control elements (e.g., Green Fluorescent Protein GFP fragments) were identified as described hereinbelow. Several candidate locations for insertion were identified. We used an E. coli-based rifampin mutagenesis assay to evaluate activity (See Kohli et al., J Biol Chem. (2009) 284:pages 22898-904). In this assay we measure the activity level of a mutator by measuring how many E. coli can be turned resistant to the antibiotic rifampin when the enzyme is turned on.
The mutation frequency of various DNA deaminases, including insertion constructs, were determined using a modified version of previously reported rifampin mutagenesis assay (Kohli, JBC 2009). […] The mutation frequencies were then calculated by the ratio of rifampicin resistant colonies to total population. […]

[1] = system: fluorescein (FAM)-labeled oligonucleotide substrate containing a single cytosine; assay: In vitro DNA deaminase oligonucleotide assay; assay type: biochemical; details: result in words
Protocol: For in vitro assays, purified intact, optGFP-inserted, or split DNA deaminases were expressed in BL21(DE3) cells that co-express the Trigger Factor (TF) chaperone, as previously described^33. Briefly, 600 mL cultures were grown to an OD600 of 0.6 at 37° C. Cultures were shifted to 16° C. for 16 hours after induction with 1 mM IPTG. For AID variants, the pelleted cells were resuspended in 50 mM Tris-Cl (pH 7.5) 150 mM NaCl, 10% glycerol (wash buffer) and lysed through sonication. The soluble fraction was filtered after high-speed centrifugation and incubated with 3 mL of Amylose Resin (NEB) for 1 hr at 4° C. The resin was washed extensively prior to elution with wash buffer plus 10 mM maltose. Total protein was quantified by comparison to a BSA standard curve. For A3A variants, the pelleted cells were resuspended in 50 mM Tris-Cl (pH 7.5) 150 mM NaCl, 10% glycerol, 25 mM imidazole (wash buffer) and lysed through sonication. The soluble fraction was filtered after high-speed centrifugation and incubated with 3 mL of HisPur cobalt resin (Thermo) for 1 hr at 4° C. […]
For the in vitro assay, a fluorescein (FAM)-labeled oligonucleotide substrate was used containing a single cytosine, along with a product control oligonucleotide containing uracil at the same location. […] Product formation was quantified using ImageJ by taking the ratio of substrate to product under each condition. […]

| Substance | Rif^R increase relative to catalytically inactive mutant AID(E58A) (BL21(DE3) E. coli) [fold] | in vitro deaminase activity [1] |
| --- | --- | --- |
| AID(WT): unmutated AID (activation induced deaminase) | 12 |  |
| A3A: human A3 enzyme APOBEC3A DNA deaminase |  | tolerated optGFP insertion |
